From PMC10535741, “Styrylpyridinium Derivatives for Fluorescent Cell Imaging” (Pharmaceuticals, 2023)

Tested on: BHK-21 cells
Type: cell-based, Syrian hamster
Settings: BHK-21, 24 h after staining
Procedure: SP compound 6e was selected for fluorescent cell imaging analysis. First, the compound was used to label the BHK-21 cells that are widely used in molecular biology studies. Commercially available CellTracker™ Deep Red dye (Invitrogen) was used as a control because it has a similar emission range (ex/em: 630/660). The BHK-21 cells were incubated with fluorescent dyes to stain the cells, then seeded on a 24-well plate and cultured for 24 h. SP compound 6e was used at 25 μM concentration, providing a non-toxic effect on BHK-21 cells (Table S2, entry 5, Supplementary Materials). The Deep Red dye was used according to the manufacturer’s instructions.
The day after staining, the cells were collected and washed several times with PBS buffer in order to evaluate the stability of the staining. The fluorescent signal was analysed by flow cytometry (Figure 3). […] However, only (61 ± 3)% of Deep Red stained cells were positive, whereas SP compound 6e ensured 99.9% positive cells. Moreover, the signal intensity (fluorescence shift from unstained cells) of cells stained with compound 6e was remarkably higher than for the Deep Red dye. The calculated stain index for SP compound 6e was (92 ± 19) before cell washing and (77 ± 15) after cell washing. However, in the case of Deep Red, the calculated stain index was (2.27 ± 0.07) before cell washing and (2.21 ± 0.07) after cell washing. High intensity usually facilitates flow cytometry data acquisition by enhancing the signal-to-background ratio and enabling optimal compensation in complex multicolour fluorescence analysis. […]
When cells reached 90% confluency, they were stained with 25 μM compound 6e or 1 μM CellTracker™ Deep Red dye (Cat. No. C34565; Invitrogen) according to the manufacturer’s instructions. […] Stained cells were kept at 4 °C and analysed using a FACSAria BD Hardware flow cytometer with FACSDiva 6.1.3 software (BD Biosciences, San Jose, CA, USA). […] The data were analysed using FlowJo 10.3 software (FlowJo LLC, Ashland, OR, USA) and presented as the mean of three independent experiments. […]

## CCCCCCCCCCCCCCCC[n+]1ccc(C=CC=Cc2cc3c4c(c2)CCCN4CCC3)cc1.[Br-] [Compound 6e, 1-hexadecyl-4-(4-(2,3,6,7-tetrahydro-1H,5H-pyrido[3,2,1-ij]quinolin-9-yl)buta-1,3-dien-1-yl)pyridin-1-ium bromide]
Washed 3 times with PBS
  stain index after cell washing: 77 ± 15
25 μM 6e or 1 μM Deep Red
  positive (stained) cells: 99.9%
  stain index before cell washing: 92 ± 19
